Experimental data reported in patent publication US12509431B2, “1,4-dihydroquinazolinone compounds and uses thereof” (Edgewise Therapeutics, Inc., priority 2022, dated 2025).

Tests used:
Assay type in all cases: biochemical
Details in all cases: Table 7
Porcine Atria myofibrils = test: Myofibril ATPase assay (PK/LDH NADH-coupled), atria myofibrils
Outline: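 Porcine atrial myofibril ATPase followed via PK/LDH-coupled NADH depletion, absorbance at 340 nm read every 1.5-2 min over 75 min. Slopes (mAU/min) normalized to vehicle as 100% and fit to a 4-parameter logistic; EC25% derived, plus EC50% for inhibitors.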

[1] = tested on: Rabbit Skeletal myofibrils (rabbit psoas muscle); test: Myofibril ATPase assay (PK/LDH NADH-coupled), skeletal myofibrils
Outline: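 Rabbit psoas myofibrils in pCa (PIPES/CaCl2/EGTA, pH 7.0) buffer; ADP coupled via PK/LDH to NADH loss, read at 340 nm every 1.5–2 min for 75 min. Slopes normalized to vehicle (100%) and fit to 4-parameter logistic for EC25, plus EC50 for inhibitors.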

[2] = target: T1, Porcine Ventricle myofibrils (left ventricle of Yucatan minipigs) (Sus scrofa, UniProt P79293); test: Myofibril ATPase assay (PK/LDH NADH-coupled), ventricle myofibrils
T1 construct: Myofibrils from porcine cardiac muscle was isolated from the left ventricle of Yucatan minipigs; tissue Exemplar Genetics; host or cells: left ventricle of Yucatan minipigs
T1 sequence (P79293 whole entry): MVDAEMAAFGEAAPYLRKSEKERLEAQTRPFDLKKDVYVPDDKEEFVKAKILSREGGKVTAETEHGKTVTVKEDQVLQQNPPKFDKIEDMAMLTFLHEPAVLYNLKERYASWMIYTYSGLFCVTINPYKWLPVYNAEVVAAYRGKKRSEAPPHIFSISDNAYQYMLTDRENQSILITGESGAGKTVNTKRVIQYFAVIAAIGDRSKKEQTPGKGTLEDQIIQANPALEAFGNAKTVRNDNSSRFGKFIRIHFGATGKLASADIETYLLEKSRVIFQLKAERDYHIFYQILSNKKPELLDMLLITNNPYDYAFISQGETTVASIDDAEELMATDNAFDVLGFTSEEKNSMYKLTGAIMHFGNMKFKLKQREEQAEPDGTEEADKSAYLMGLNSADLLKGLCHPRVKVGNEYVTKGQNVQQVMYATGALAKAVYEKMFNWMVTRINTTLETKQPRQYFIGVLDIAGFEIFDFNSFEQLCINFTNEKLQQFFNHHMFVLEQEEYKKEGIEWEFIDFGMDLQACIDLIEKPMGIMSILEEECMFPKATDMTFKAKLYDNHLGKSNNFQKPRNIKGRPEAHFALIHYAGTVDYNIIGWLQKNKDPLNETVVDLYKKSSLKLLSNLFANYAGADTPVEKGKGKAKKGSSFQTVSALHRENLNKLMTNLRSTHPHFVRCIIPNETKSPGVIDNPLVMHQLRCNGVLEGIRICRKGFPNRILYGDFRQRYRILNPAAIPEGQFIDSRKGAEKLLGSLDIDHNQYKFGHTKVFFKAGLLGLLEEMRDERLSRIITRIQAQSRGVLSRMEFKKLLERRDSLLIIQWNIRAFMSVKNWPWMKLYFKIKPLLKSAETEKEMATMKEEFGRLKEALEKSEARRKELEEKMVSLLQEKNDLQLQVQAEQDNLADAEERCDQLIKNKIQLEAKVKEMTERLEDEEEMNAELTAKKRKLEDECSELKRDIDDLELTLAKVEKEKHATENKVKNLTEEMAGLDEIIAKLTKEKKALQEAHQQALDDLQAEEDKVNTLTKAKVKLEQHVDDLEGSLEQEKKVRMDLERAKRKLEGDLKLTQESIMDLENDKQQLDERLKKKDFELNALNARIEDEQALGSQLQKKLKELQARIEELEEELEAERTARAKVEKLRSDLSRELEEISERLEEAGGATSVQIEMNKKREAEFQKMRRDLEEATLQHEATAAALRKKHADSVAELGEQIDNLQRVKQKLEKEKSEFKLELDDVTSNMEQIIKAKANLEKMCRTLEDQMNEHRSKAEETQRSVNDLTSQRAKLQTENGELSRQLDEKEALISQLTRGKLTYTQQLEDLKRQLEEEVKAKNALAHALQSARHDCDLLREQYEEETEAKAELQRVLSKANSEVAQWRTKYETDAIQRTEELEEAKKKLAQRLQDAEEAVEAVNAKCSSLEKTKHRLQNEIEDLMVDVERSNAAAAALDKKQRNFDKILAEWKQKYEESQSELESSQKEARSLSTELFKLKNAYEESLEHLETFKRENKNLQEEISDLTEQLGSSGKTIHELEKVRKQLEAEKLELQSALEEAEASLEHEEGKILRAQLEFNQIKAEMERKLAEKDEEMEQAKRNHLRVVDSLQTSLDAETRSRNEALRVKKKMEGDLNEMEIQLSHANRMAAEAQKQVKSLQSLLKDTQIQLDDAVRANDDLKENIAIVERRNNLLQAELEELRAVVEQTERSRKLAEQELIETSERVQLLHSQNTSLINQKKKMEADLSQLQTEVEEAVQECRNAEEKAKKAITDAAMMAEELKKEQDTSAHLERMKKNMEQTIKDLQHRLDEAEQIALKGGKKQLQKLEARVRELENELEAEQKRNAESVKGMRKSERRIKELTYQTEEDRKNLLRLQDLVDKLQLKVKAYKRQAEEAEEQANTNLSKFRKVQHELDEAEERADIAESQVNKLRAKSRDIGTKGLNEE
Outline: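 Yucatan minipig left-ventricle myofibrils; ATPase measured by PK/LDH-coupled NADH loss at 340 nm, read every 1.5-2 min for 75 min. Slopes normalized to vehicle (100%) and fit to 4-parameter logistic model; EC25 and, for inhibitors, EC50 calculated.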

SMILES | Porcine Atria IC25 (Porcine Atria myofibrils) | Rabbit Psoas IC25 [1] | Porcine Ventricle IC25 [2]
C[C@H](NC(=O)CN1Cc2nc(F)ccc2NC1=O)c1ncc(F)cc1F [Compound N105] | 100000 nM | 30960 nM | 100000 nM
COc1ccc2c(n1)CN([C@H](C)C(=O)N[C@@H](C)c1ccc(F)cc1F)C(=O)N2 [Compound N106] | 2580 nM | 3732 nM | 100000 nM
COc1ccc2c(n1)CN([C@@H](C)C(=O)N[C@@H](C)c1ccc(F)cc1F)C(=O)N2 [Compound N107] | 100000 nM | 100000 nM | 100000 nM
C[C@H](NC(=O)[C@H](C)N1Cc2c(ccnc2C(F)(F)F)NC1=O)c1ccc(F)cc1F [Compound N108] | 1410 nM | 72.7 nM | 49280 nM
C[C@H](NC(=O)CN1Cc2nc(OC(F)(F)F)ccc2NC1=O)c1ccc(F)cc1F [Compound N109] | 5440 nM | 455.3 nM | 100000 nM
CC(C(=O)N[C@@H](C)c1ccc(F)cc1F)N1Cc2nc(F)ccc2NC1=O (stereo partly drawn) [Compound N110] | 190 nM | 167.4 nM | 19540 nM
C[C@H](NC(=O)[C@@H](C)N1Cc2nc(F)ccc2NC1=O)c1ccc(F)cc1F [Compound N111] | 80 nM | 102.7 nM | 6670 nM
C[C@H](NC(=O)CN1Cc2nc(C(F)(F)F)ccc2NC1=O)c1ccc(F)cc1F [Compound N112, N-[(1S)-1-(2,4-Difluorophenyl)ethyl]-2-[2-oxo-6-(trifluoromethyl)-1H,4H-pyrido[3,2-d]pyrimidin-3-yl]acetamide] | 230 nM | 296.8 nM | 9823 nM
C[C@H](NC(=O)CN1Cc2nc(OC3CC3)ccc2NC1=O)c1ccc(F)cc1F [Compound N113] | 22120 nM | 328.1 nM | 73850 nM
C[C@H](NC(=O)[C@H](C)N1Cc2c(ccnc2Cl)NC1=O)c1ccc(F)cc1F [Compound N114] | 2300 nM | 289.2 nM | 8373 nM
C[C@H](NC(=O)[C@@H](C)N1Cc2c(ccnc2Cl)NC1=O)c1ccc(F)cc1F [Compound N115] | 510 nM | 22.8 nM | 751.6 nM
C[C@H](NC(=O)CN1Cc2c(ccnc2OC2CC2)NC1=O)c1ccc(F)cc1F [Compound N116] | 4380 nM | 191.4 nM | 40220 nM
C[C@H](NC(=O)CN1Cc2nc(Cl)ccc2NC1=O)c1ccc(F)cc1F [Compound N117, 2-{6-Chloro-2-oxo-1H,4H-pyrido[3,2-d]pyrimidin-3-yl}-N-[(1S)-1-(2,4-difluorophenyl)ethyl]acetamide] | 170 nM | 14.6 nM | 379.5 nM
CCOc1ccc2c(n1)CN(CC(=O)N[C@@H](C)c1ccc(F)cc1F)C(=O)N2 [Compound N118] | 750 nM | 152 nM | 5896 nM
COc1ccc2c(n1)CN(CC(=O)N[C@@H](C)c1ccc(F)cc1F)C(=O)N2 [Compound N119] | 570 nM | 119.6 nM | 3289 nM
CC(C)Oc1nccc2c1CN(CC(=O)N[C@@H](C)c1ccc(F)cc1F)C(=O)N2 [Compound N120] | 100000 nM | 423.9 nM | 27230 nM

SMILES | Porcine Atria IC25 (Porcine Atria myofibrils) | Rabbit Psoas IC25 [1] | Porcine Ventricle IC25 [2]
CCOc1nccc2c1CN(CC(=O)N[C@@H](C)c1ccc(F)cc1F)C(=O)N2 [Compound N121] | 510 nM | 21.8 nM | 5985 nM
C[C@H](NC(=O)CN1Cc2c(ccnc2OCC(F)F)NC1=O)c1ccc(F)cc1F [Compound N122] | 360 nM | 56.7 nM | 11420 nM
C[C@H](NC(=O)CN1Cc2nc(F)ccc2NC1=O)c1ccc(F)cc1F [Compound N123] | 70 nM | 35.14 nM | 859.2 nM
C[C@H](NC(=O)CN1Cc2c(ccnc2F)NC1=O)c1ccc(F)cc1F [Compound N124] | 80 nM | 50.3 nM | 245.2 nM
COc1nccc2c1CN(CC(=O)N[C@@H](C)c1ccc(F)cc1F)C(=O)N2 [Compound N125, N-[(1S)-1-(2,4-Difluorophenyl)ethyl]-2-{5-methoxy-2-oxo-1H,4H-pyrido[4,3-d]pyrimidin-3-yl}acetamide] | 680 nM | 42.3 nM | 2663 nM
C[C@H](NC(=O)CN1Cc2c(ccnc2C(F)(F)F)NC1=O)c1ccc(F)cc1F [Compound N126] | 600 nM | 75.62 nM | 4027 nM
C[C@H](NC(=O)CN1Cc2c(ccnc2C2CC2)NC1=O)c1ccc(F)cc1F [Compound N127, 2-[5-Cyclopropyl-2-oxo-1H,4H-pyrido[4,3-d]pyrimidin-3-yl]-N-[(1S)-1-(2,4-difluorophenyl)ethyl]acetamide] | 3120 nM | 293.1 nM | 73050 nM
C[C@H](NC(=O)CN1Cc2c(ccnc2Cl)NC1=O)c1ccc(F)cc1F [Compound N128, 2-{5-Chloro-2-oxo-1H,4H-pyrido[4,3-d]pyrimidin-3-yl}-N-[(1S)-1-(2,4-difluorophenyl)ethyl]acetamide] | 80 nM | 41.8 nM | 253.3 nM
Cc1nccc2c1CN(CC(=O)N[C@@H](C)c1ccc(F)cc1F)C(=O)N2 [Compound N129, N-[(1S)-1-(2,4-Difluorophenyl)ethyl]-2-{5-methyl-2-oxo-1H,4H-pyrido[4,3-d]pyrimidin-3-yl}acetamide] | 4200 nM | 559 nM | 4847 nM
O=C(CN1Cc2cnccc2NC1=O)N[C@H]1CCCc2cc(F)cc(F)c21 [Compound N130] | 1540 nM | 688 nM | 100000 nM
C[C@H](NC(=O)CN1Cc2cnccc2NC1=O)c1ccc(Cl)cc1 [Compound N131] | 36110 nM | 8051 nM | 100000 nM
Cc1cc(F)ccc1[C@H](C)NC(=O)CN1Cc2cnccc2NC1=O [Compound N132] | 3750 nM | 1636 nM | 97090 nM
C[C@H](NC(=O)CN1Cc2cnccc2NC1=O)c1ccc(F)cc1F [Compound N133] | 2800 nM | 839.1 nM | 13900 nM
N#Cc1cnc2c(n1)CC[C@H]2NC(=O)CN1C(=O)Nc2ccc(C#N)nc2C12CC2 [Compound N135] | 6420 nM | 100000 nM | 100000 nM
N#Cc1cnc2c(n1)CC[C@@H]2NC(=O)CN1C(=O)Nc2ccc(C#N)nc2C12CC2 [Compound N136] | 290 nM | 100000 nM | 10900 nM
